Values of other authors in the PKSmart pharmacokinetics tables (Seal et al. 2025).

Tests used:
[1] = Lombardo et al. 2013, J Clin Pharmacol 53:178, doi 10.1177/0091270012440282; settings: for Vd / clearance: in vivo, iv; for fraction unbound: plasma
[2] = not given per row; by the article one of three: Lombardo et al. 2013, J Clin Pharmacol 53:178, doi 10.1177/0091270012440282; 'New Drugs at FDA', novel drug approvals for 2021 and 2022 (the article's reference 43); Yap, Li, Chen 2006, J Mol Graph Model 24:383, doi 10.1016; settings: human; for Vd / clearance / half-life: in vivo; for fraction unbound: plasma

Structure (SMILES)	Vd ([1]; rat) [L/kg]	clearance ([1]; rat) [mL/min/kg]	Vd [2] [L/kg]	clearance [2] [mL/min/kg]	other results
[H]/N=C(/N=C(N)N)N(C)C	0.54	16.8	0.64	7.4	–
CNC(C)C1CCC(N)C(OC2C(N)CC(N)C(OC3OCC(C)(O)C(NC)C3O)C2O)O1 (stereo unspecified)	0.33	7.8	–	1	Vd ([1]; dog): 0.33 L/kg; clearance ([1]; dog): 2.1 mL/min/kg
C/N=C1/CN(O)C(c2ccccc2)=c2cc(Cl)ccc2=N1	1.3	7.8	0.25	–	fraction unbound ([1]; rat): 0.15
O=c1ncnc2[nH][nH]cc1-2	–	–	0.58	–	Vd ([1]; dog): 0.16 L/kg
NNc1nncc2ccccc12	2.76	139	1.5	70.5	fraction unbound ([1]; dog): 0.29
COCCOCC(CC1(C(=O)NC2CCC(C(=O)O)CC2)CCCC1)C(=O)O (stereo unspecified)	–	15	0.25	2.3	clearance ([1]; dog): 5.8 mL/min/kg; fraction unbound ([1]; rat): 0.23
CN(C)C1C(=O)C(C(N)=O)=C(O)[C@@]2(O)C(=O)C3=C(O)c4c(O)cccc4[C@@](C)(O)[C@H]3[C@H](O)[C@@H]12 (stereo partly specified)	–	–	1.7	2	Vd ([1]; dog): 1.01 L/kg; clearance ([1]; dog): 1.47 mL/min/kg
CON=C(C(=O)NC1C(=O)N2C(C(=O)[O-])=C(Cn3cc[n+]4ncccc34)CS[C@H]12)c1nsc(N)n1 (stereo partly specified)	0.2	9.4	0.24	2.1	Vd ([1]; dog): 0.2 L/kg; clearance ([1]; dog): 3 mL/min/kg; fraction unbound ([1]; dog): 0.9; Vd ([1]; monkey): 0.2 L/kg; clearance ([1]; monkey): 1.9 mL/min/kg; fraction unbound ([1]; monkey): 0.9; fraction unbound ([1]; rat): 0.93
COc1ccccc1Oc1c(NS(=O)(=O)c2ccc(C(C)C)cn2)nc(-c2ccnc(-c3nn[nH]n3)c2)nc1OCCO	0.27	4.3	–	9.05	Vd ([1]; monkey): 0.21 L/kg; clearance ([1]; monkey): 15.6 mL/min/kg
[2H]C([2H])([2H])C([2H])([2H])C(C)n1ncn(-c2ccc(N3CCN(c4ccc(OC[C@H]5CO[C@](Cn6cncn6)(c6ccc(Cl)cc6Cl)O5)cc4)CC3)cc2)c1=O (stereo partly specified)	5.07	9.16	7.4	5.1	fraction unbound ([1]; rat): 0.9
CON=C(C(=O)NC1C(=O)N2C(C(=O)O)=C(CSc3nc(=O)c(=O)[nH]n3C)CS[C@H]12)c1csc(N)n1 (stereo partly specified)	1	20	0.09	0.245	Vd ([1]; dog): 0.25 L/kg; clearance ([1]; dog): 3.95 mL/min/kg; fraction unbound ([1]; dog): 0.717; Vd ([1]; monkey): 0.11 L/kg; clearance ([1]; monkey): 0.19 mL/min/kg; fraction unbound ([1]; monkey): 0.0487; fraction unbound ([1]; rat): 0.071
CC(C)(C)S(=O)(=O)CC(Cc1ccccc1)C(=O)NC(Cc1cnc[nH]1)C(=O)N[C@@H](CC1CCCCC1)[C@@H](O)[C@@H](O)C1CC1 (stereo partly specified)	4.4	119	0.77	11.6	Vd ([1]; dog): 1.52 L/kg; clearance ([1]; dog): 24.7 mL/min/kg; fraction unbound ([1]; dog): 0.0802; Vd ([1]; monkey): 1.7 L/kg; clearance ([1]; monkey): 20 mL/min/kg; fraction unbound ([1]; monkey): 0.167; fraction unbound ([1]; rat): 0.053
CCCn1c(=O)[nH]c(=O)c2[nH]cnc21	0.27	12	–	4.16	Vd ([1]; dog): 0.64 L/kg; clearance ([1]; dog): 2.4 mL/min/kg; fraction unbound ([1]; dog): 0.61; fraction unbound ([1]; rat): 0.19
O=C(O)C1=C(C[n+]2ccc(CCS(=O)(=O)[O-])cc2)CS[C@@H]2C(NC(=O)C(NC(=O)c3nc[nH]c3C(=O)O)c3ccccc3)C(=O)N12 (stereo partly specified)	–	–	0.21	1.7	Vd ([1]; dog): 0.2 L/kg; clearance ([1]; dog): 0.6 mL/min/kg; fraction unbound ([1]; dog): 0.07; Vd ([1]; monkey): 0.3 L/kg; clearance ([1]; monkey): 3 mL/min/kg
C[C@@H](O[C@H]1OCCN(Cc2nc(=O)[nH][nH]2)[C@H]1c1ccc(F)cc1)c1cc(C(F)(F)F)cc(C(F)(F)F)c1	3.2	–	0.94	–	Vd ([1]; dog): 1 L/kg; fraction unbound ([1]; dog): 0.0009; fraction unbound ([1]; rat): 0.002
O=C(O)CCC(NC(=O)NC(CCCCNC(=O)C(Cc1ccc2ccccc2c1)NC(=O)C1CCC(CNC(=O)CN2CCN(CC(=O)O)CCN(CC(=O)O)CCN(CC(=O)O)CC2)CC1)C(=O)O)C(=O)O (stereo unspecified)	–	–	2.05	0.567	half-life [2]: 41.6 h; fraction unbound [2]: 0.35

Structure (SMILES)	Vd ([1]; rat) [L/kg]	clearance ([1]; rat) [mL/min/kg]	Vd [2] [L/kg]	clearance [2] [mL/min/kg]	other results
Cc1c(C(C)C)c(=O)n(-c2ccccc2)n1C	–	–	–	11	–
CN1C(=O)NC(=O)[C@@](C)(C2=CCCCC2)C1=O	–	–	–	3.6	–
CNCC[C@H](Oc1ccc(C(F)(F)F)cc1)c1ccccc1	–	–	–	9.6	–
O=c1[nH]c2ccccc2n1C1CCN(CCCC(c2ccc(F)cc2)c2ccc(F)cc2)CC1	–	–	–	4.1	–
COc1cc2nccc(Oc3ccc(NC(=O)Nc4cc(C)on4)c(Cl)c3)c2cc1OC	–	–	2.05	0.21	half-life [2]: 111 h; fraction unbound [2]: 0.01
NC(C(=O)NC1C(=O)N2C(C(=O)O)=C(Cl)CS[C@H]12)c1ccccc1 (stereo partly specified)	–	–	–	6.1	–
C[C@]12CC[C@@H]3C4=C(CC[C@H]3[C@@H]1CC[C@@H]2O)CC(=O)CC4	–	–	–	26.7	–
CC1(C)S[C@H]2C(NC(=O)C(NC(=O)N3CCN(S(C)(=O)=O)C3=O)c3ccccc3)C(=O)N2C1C(=O)O (stereo partly specified)	–	–	–	2.71	–
CC(=O)OCC(CCn1cnc2cnc(N)nc21)COC(C)=O	–	–	–	8	–
O=C1C=CC=CC1=C1NC(=C2C=CC=CC2=O)N(c2ccc(C(=O)O)cc2)N1	0.46	6.2	0.2	0.84	–
Cc1cc(O)c(C(=O)NC(C(=O)NC2C(=O)N3C(C(=O)O)=C(CSc4nnnn4C)CS[C@H]23)c2ccc(O)cc2)cn1 (stereo partly specified)	–	–	–	0.28	–
C=CCN1CCc2nc(N)sc2CC1	–	–	–	7.38	–
CC(C(=O)O)c1ccc2oc(-c3ccc(Cl)cc3)nc2c1 (stereo unspecified)	–	–	–	0.07	–
C[C@]12C=CC(=O)C=C1CC[C@H]1[C@@H]3C[C@@H](O)[C@](O)(C(=O)CO)[C@@]3(C)C[C@@H](O)[C@@]12F	–	–	–	13.1	–
CC(=O)O[C@H](CC(=O)[O-])C[N+](C)(C)C	–	–	–	1.45	–
